Laboratory results from ChEMBL document CHEMBL1201862, “PubChem BioAssay data set” (2004).
The source made the active and inactive calls.

Columns and labels:
HeLa = experiment: HeLa cell cytotoxicity, dose response, cytotoxicity control, 24 h, cherry-picked samples (AID 504726); type: functional, cell-based; conditions: Homo sapiens;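 also: potency for cytotoxicity as loss of luminescence signal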
[1] = A Cell Based Secondary Assay To Explore Cytotoxicity of Compounds that Sensitize Mycobacterium Tuberculosis to Beta-Lactam Antibiotics.; type: functional
[2] = molecular target: T1, Alkaline phosphatase, tissue-nonspecific isozyme (Homo sapiens, UniProt P05186)
T1 sequence (P05186 whole entry): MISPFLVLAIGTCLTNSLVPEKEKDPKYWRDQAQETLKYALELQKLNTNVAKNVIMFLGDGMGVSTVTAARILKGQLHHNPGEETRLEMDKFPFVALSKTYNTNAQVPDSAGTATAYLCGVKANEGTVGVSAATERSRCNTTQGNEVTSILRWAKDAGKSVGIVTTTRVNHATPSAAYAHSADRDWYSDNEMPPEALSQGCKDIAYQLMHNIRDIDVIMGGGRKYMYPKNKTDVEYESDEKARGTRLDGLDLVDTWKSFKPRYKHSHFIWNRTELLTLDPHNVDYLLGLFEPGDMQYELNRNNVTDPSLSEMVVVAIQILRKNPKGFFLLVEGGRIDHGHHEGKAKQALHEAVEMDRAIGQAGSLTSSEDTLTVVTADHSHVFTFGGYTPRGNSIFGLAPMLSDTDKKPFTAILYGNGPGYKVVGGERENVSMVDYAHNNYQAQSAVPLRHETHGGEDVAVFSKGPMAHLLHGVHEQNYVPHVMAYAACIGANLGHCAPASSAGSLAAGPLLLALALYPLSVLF

Cytochrome P450 2C19 = Cytochrome P450 2C19 (Homo sapiens, UniProt P33261); experiment: Cytochrome panel assay with activity outcomes. Panel member name: p450-cyp2c19 Compounds with AC50 equal or less than 10 uM are considered active; type: functional; conditions: read-out: AC50
Cytochrome P450 2C9 = Cytochrome P450 2C9 (Homo sapiens, UniProt P11712)
[3] = molecular target: T2, Eukaryotic translation initiation factor 2-alpha kinase 3 (Homo sapiens, UniProt Q9NZJ5); experiment: Dose response cell-based high-throughput screening assay to measure PERK inhibition. [Related pubchem assays: 1416 ]; type: functional
T2 sequence (Q9NZJ5 whole entry): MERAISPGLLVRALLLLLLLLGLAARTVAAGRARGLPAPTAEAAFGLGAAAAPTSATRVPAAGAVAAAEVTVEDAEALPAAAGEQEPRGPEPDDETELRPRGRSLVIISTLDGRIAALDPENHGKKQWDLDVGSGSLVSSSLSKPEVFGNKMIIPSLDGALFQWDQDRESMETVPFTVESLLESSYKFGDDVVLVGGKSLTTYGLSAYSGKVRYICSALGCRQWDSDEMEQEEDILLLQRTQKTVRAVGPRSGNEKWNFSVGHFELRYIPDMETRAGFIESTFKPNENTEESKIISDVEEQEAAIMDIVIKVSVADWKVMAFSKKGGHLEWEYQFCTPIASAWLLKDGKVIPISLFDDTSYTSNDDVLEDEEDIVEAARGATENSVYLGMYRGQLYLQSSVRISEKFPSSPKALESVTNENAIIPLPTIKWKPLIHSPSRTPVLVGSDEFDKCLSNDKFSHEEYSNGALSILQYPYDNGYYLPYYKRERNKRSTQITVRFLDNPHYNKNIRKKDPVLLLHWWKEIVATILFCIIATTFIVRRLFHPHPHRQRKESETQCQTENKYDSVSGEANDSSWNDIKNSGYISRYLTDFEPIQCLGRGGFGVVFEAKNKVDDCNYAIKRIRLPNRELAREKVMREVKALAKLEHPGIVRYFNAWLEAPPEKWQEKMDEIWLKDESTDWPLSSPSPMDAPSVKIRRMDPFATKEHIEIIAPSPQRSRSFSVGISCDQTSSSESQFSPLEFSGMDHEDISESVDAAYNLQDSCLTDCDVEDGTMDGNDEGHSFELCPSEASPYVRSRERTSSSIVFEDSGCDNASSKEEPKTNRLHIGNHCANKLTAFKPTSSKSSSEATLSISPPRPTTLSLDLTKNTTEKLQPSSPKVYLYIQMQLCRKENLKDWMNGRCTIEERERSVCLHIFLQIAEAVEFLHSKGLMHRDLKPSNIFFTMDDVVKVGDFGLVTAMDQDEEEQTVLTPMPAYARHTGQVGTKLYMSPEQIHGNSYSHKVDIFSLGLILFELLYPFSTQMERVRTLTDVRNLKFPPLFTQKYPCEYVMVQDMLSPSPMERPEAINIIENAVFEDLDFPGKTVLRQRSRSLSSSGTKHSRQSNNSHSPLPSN

[4] = molecular target: T2, Eukaryotic translation initiation factor 2-alpha kinase 3; experiment: Counterscreen assay for PERK inhibitors: Dose response cell-based high throughput screening assay to measure inhibition of PERK at 6 hours. [Related pubchem assays: 1522, 1416 ]; type: functional
[5] = molecular target: Mothers against decapentaplegic homolog 3 (Homo sapiens, UniProt P84022); experiment: Smad3 binding inhibitors, lysate ELISA, dose response, cell lysate, secondary confirmation, chemiluminescent ELISA, HEK293 lysate (AID 1058); type: functional
[6] = molecular target: Luciferin 4-monooxygenase (Photinus pyralis, UniProt P08659); experiment: Counter Screen for Luciferase-based Assay Positives. [Related pubchem assays: 620, 618, 411 ]
HT-1080 = experiment: cytotoxicity in HT1080 fibrosarcoma cells, cell-based, fluorescence readout (AID 620); type: functional; conditions: Homo sapiens
Protein skinhead-1 = molecular target: T3, Protein skinhead-1 (Caenorhabditis elegans, UniProt P34707); type: functional
T3 sequence (P34707 whole entry): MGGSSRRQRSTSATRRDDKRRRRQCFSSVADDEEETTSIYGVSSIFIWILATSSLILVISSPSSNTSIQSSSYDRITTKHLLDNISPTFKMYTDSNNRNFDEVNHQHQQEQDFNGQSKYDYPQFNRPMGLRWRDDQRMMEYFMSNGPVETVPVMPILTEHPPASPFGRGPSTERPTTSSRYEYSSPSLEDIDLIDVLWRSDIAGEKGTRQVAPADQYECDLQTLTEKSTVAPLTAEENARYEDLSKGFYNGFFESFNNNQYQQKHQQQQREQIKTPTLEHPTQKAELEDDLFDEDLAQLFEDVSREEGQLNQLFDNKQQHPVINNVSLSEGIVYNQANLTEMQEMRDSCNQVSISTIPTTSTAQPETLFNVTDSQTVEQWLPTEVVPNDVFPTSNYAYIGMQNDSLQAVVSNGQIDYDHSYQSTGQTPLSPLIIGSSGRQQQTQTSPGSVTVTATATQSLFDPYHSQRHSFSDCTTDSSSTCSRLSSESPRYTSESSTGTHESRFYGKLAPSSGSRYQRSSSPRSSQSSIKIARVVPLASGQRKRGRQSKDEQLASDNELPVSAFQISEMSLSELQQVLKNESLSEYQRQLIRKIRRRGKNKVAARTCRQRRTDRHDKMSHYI

[7] = A375 melanoma cell viability loss, dose response, counter-screen for MITF inhibitor project, CellTiter-Glo luminescence, dry powder, set 4 (AID 624364); type: functional, cell-based; conditions: A-375;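 also: A375 melanoma cells are MITF independent so this is a counter screen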
[8] = molecular target: T4, Microphthalmia-associated transcription factor (Homo sapiens, UniProt O75030); experiment: TRPM1 promoter luciferase signal decrease, dose response, MITF inhibitor project, cell-based, SK-MEL-5, cherry-picked, set 3 (AID 493073); type: functional
T4 sequence (O75030 whole entry): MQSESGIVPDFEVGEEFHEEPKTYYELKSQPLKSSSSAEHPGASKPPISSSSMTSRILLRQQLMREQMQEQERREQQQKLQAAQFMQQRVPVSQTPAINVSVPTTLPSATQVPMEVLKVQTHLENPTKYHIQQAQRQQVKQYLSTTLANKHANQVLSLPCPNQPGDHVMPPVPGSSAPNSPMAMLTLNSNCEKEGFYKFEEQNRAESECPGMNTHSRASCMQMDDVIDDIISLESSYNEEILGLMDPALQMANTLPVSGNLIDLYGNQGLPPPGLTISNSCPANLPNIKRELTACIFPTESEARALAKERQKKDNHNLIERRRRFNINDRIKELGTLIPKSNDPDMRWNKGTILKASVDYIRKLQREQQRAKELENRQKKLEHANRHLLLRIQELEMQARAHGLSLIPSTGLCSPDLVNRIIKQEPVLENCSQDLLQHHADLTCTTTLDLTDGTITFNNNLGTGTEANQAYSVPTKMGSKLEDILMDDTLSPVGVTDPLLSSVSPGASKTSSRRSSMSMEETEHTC

[9] = Luminescence Cell-Based Dose Retest to Confirm Inhibitors of Cancer Stem Cells. [Related pubchem assays (depositor defined):AID2717, AID2721]; type: functional; conditions: Homo sapiens
[10] = A375 melanoma cell cytotoxicity, dose response, counter-screen for MITF inhibitor project, CellTiter-Glo luminescence, dry powder, set 2 (AID 624489); type: functional, cell-based; conditions: A-375;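 also: actives are compounds lowering A375 viability meaning general cytotoxicity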
Streptococcus = experiment: Group A Streptococcus viability loss, dose response, counter-screen for streptokinase expression inhibitor project, luminescence, BacTiterGlo (AID 1915); type: functional, organism-based;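 also: potency for reduction of bacterial viability or growth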
[11] = tested on: Streptococcus sp. 'group A'; experiment: growth inhibition of control SK(-) GAS strain, dose response, counter-screen for streptokinase expression inhibitor project, luminescence, kanamycin, BacTiterGlo, confirmation (AID 1900); type: functional, organism-based
Streptokinase A = molecular target: T5, Streptokinase A (Streptococcus pyogenes serotype M1, UniProt P10520); experiment: S. pyogenes streptokinase expression inhibitors, potency, dose response, plasminogen activation absorbance, OD405 (AID 1914); type: functional, Streptococcus pyogenes M1 GAS;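 also: secreted streptokinase activity via plasminogen activation per viability signal from cell pellet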
T5 sequence (P10520 whole entry): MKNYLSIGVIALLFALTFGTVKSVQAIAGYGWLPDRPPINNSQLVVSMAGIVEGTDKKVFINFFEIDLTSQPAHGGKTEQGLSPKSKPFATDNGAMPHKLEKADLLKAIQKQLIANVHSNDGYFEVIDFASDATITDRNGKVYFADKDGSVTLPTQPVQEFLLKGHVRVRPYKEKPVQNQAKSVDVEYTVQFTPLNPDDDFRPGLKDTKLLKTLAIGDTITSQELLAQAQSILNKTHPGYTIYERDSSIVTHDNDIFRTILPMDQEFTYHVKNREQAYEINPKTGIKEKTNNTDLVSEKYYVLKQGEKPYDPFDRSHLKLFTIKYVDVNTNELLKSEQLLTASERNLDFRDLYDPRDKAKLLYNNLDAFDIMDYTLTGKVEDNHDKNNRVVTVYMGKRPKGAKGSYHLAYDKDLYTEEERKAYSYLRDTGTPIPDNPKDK

Hexokinase HKDC1 = molecular target: T6, Hexokinase HKDC1 (Homo sapiens, UniProt Q2TB90); experiment: HKDC1 hexokinase inhibitors, dose response, biochemical, W721R variant (AID 504729); type: functional
T6 sequence (Q2TB90 whole entry): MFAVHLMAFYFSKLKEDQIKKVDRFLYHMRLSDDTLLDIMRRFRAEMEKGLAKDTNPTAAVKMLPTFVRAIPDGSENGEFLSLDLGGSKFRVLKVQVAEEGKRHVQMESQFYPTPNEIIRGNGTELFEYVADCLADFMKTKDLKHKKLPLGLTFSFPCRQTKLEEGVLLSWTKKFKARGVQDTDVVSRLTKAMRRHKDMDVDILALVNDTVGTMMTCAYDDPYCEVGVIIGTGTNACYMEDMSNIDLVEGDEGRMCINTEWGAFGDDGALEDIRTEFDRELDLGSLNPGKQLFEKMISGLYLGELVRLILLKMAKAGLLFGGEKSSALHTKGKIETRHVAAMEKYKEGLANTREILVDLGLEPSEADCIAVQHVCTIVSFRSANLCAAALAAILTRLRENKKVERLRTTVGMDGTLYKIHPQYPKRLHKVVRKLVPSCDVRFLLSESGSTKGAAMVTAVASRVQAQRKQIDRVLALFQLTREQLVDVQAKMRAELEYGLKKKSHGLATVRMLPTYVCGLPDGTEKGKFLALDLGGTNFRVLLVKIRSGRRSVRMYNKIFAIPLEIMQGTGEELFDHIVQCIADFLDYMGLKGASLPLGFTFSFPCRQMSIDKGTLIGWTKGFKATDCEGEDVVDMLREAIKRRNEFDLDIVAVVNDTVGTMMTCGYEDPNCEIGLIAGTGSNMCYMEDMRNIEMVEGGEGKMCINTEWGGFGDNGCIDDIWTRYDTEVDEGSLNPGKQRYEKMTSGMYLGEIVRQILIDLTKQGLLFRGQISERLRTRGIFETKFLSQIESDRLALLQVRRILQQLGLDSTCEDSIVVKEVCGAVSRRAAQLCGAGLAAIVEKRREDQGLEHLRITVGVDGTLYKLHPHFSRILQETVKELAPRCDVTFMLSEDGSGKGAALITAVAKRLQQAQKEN

Sequence of Mothers against decapentaplegic homolog 3 (P84022 whole entry): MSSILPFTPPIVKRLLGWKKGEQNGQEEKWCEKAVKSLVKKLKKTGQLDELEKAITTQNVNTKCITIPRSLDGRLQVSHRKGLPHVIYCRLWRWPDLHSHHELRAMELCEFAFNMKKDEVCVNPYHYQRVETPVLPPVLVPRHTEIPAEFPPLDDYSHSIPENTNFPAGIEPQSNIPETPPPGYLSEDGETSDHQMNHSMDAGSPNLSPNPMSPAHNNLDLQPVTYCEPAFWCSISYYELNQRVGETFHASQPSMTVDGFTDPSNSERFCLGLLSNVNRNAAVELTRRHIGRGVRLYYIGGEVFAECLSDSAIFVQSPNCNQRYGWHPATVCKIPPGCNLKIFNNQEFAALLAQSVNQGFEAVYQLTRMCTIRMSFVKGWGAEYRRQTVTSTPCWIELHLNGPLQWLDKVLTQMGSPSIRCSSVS
Sequence of Cytochrome P450 2C9 (P11712 whole entry): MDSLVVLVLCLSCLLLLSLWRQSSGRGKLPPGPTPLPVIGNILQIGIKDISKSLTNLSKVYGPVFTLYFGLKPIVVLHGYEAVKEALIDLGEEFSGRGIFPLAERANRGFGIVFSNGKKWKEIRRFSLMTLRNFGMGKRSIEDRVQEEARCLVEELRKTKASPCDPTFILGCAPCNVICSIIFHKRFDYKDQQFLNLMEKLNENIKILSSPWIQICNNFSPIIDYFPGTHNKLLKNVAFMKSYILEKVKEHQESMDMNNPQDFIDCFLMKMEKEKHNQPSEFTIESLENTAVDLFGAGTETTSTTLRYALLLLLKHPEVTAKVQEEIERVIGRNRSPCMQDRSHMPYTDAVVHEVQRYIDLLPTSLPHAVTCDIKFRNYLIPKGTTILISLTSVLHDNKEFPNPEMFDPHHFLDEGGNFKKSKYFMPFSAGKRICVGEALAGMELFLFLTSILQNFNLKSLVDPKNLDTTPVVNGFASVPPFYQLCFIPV
Sequence of Cytochrome P450 2C19 (P33261 whole entry): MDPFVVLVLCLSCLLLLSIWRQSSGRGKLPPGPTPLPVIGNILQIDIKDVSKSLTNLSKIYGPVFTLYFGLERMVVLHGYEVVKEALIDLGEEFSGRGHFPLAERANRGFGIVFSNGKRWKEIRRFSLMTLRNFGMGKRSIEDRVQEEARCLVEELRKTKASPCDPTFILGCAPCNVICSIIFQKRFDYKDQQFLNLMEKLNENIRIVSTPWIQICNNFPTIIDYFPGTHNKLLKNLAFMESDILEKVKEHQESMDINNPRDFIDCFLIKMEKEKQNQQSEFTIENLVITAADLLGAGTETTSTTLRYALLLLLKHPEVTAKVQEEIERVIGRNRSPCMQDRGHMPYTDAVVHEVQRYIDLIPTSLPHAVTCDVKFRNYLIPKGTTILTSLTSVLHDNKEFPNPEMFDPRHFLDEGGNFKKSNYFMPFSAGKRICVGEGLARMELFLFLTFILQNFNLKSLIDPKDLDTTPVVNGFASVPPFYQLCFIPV
Sequence of Luciferin 4-monooxygenase (P08659 whole entry): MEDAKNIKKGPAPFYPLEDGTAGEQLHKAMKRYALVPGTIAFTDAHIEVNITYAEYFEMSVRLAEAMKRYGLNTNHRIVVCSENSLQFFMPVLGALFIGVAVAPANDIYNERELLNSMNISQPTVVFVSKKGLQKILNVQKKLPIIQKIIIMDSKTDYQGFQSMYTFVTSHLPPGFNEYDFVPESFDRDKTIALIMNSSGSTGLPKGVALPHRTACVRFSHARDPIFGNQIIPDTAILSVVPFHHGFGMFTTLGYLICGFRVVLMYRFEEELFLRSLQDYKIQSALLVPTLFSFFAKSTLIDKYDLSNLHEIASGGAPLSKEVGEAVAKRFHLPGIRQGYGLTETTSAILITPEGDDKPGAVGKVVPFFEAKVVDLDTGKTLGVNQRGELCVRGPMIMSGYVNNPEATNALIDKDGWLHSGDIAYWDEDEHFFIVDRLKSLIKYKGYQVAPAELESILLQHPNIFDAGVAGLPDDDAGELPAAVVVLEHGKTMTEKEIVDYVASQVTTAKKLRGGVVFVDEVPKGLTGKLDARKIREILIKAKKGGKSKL

CCOc1ccc(C(C)NC(=O)c2ccccc2OCc2c(C)noc2C)cc1OCC (centres undefined)
AC50 (HeLa): 113 µM (active)

C[C@H](NC(=O)c1[nH]cnc1C(=O)Nc1cccc(Cl)c1)c1ccccc1
CC50 [1]: 19.3 µM (active)

O=C(CCN1C(=O)/C(=C/c2cccc(Br)c2)SC1=S)NNC(=O)c1cccnc1
EC50 [2]: 83.8 µM (not active) | AC50 (Cytochrome P450 2C19): 1.58 µM (inconclusive) | AC50 (Cytochrome P450 2C9): 0.447 µM (inconclusive)

CC(C)(C)N1CCC1CN (centres undefined)
EC50 [3]: > 55.7 µM (not active) | EC50 [4]: > 55.7 µM (not active)

Cc1nc([N+](=O)[O-])cn1CCC#N
EC50 [3]: > 55.7 µM (not active) | EC50 [4]: > 55.7 µM (not active)

O=C1OC2(c3ccc(O)cc3Oc3cc(O)ccc32)c2ccccc21 [FLUORESCEIN]
IC50 [5]: 4.89 µM (not active)

CCN(C(=O)COC(=O)CCCOc1ccc(Cl)cc1C)c1c(N)n(Cc2ccccc2)c(=O)[nH]c1=O
AC50 (HeLa): 43.7 µM (active)

Cc1ccc2nc(NC(=O)c3ccco3)sc2c1
EC50 [6]: 18.9 µM (active) | EC50 (HT-1080): > 50 µM (not active) | IC50 (Protein skinhead-1): > 100 µM (inactive)

CC1CCN(CC(CS(=O)(=O)c2ccc([N+](=O)[O-])cc2)N2CCC(C)CC2)CC1 (centres undefined)
AC50 [7]: > 70 µM (inactive) | CC50 [1]: 7.41 µM (active) | AC50 [8]: 6.62 µM (active) | AC50 [9]: 1.59 µM (active) | AC50 [10]: > 70 µM (inactive)

N#C/C(=C(/O)CCl)c1nc2c(s1)CCc1ccccc1-2
EC50 (Streptococcus): > 150 µM (not active) | EC50 [11]: > 150 µM (not active) | EC50 (Streptokinase A): > 150 µM (not active) | IC50 (Hexokinase HKDC1): 17.4 µM (active)

COc1cccc(C(c2cc3c(cc2O)OCO3)N2CCOCC2)c1OC (centres undefined)
IC50 [5]: 6.43 µM (not active)
